{
  "source": "patent US20260284168A1",
  "about": "“RNA FOR PREVENTING OR TREATING TUBERCULOSIS” (priority 2023, published 2026)",
  "system": "Caspase-1",
  "format": "cell-based",
  "conditions": "50 μM",
  "data": [
    {"compound": "CCO[C@@H]1OC(=O)C[C@@H]1NC(=O)[C@@H]1CCCN1C(=O)[C@@H](NC(=O)c1ccc(N)c(Cl)c1)C(C)(C)C", "note": "[VX765]", "values": [
      {"measurement": "effect of Caspase-1 inhibitor on IL-1β release", "value": "inhibited IL-1ß release"}
    ]}
  ]
}
